Measured values from publication PMC4110927 (Virology, 2013).
pIC50: −log10 of the molar value. Values joined by “and” are separate entries in the source; they are usually repeats but may differ in a detail not shown here. Identical values can stand only once. Where a SMILES comes first, the peptide text is derived from it. Where no end group is shown, it is not given here.

Biological target: soluble HLA A*0201 or B*0702 (allele not stated for the peptide family)
Test: fluorescence polarisation
Settings: not given

**Q.** Env gp160/120 341-349 […] (peptide) was tested. Which logIC50 did it give?
**A.** 4.36

**Q.** How did the logIC50 turn out when Gag p24 143-151 […] (peptide) was run?
**A.** 4.34 and 3.92

Biological target: soluble HLA-A*0201 (Homo sapiens, UniProt P04439, D140Y/D185E/D98H/E176V/E277Q/G131W/G231S/I119V/I121R/I166T/I218V/L300P/L318F/N151K/N90K/P208A/P217A/Q86G/Q94H/R138H/R169H/T345S)
Test: Fluorescence polarization
Assay type: binding
Settings: not given

**Q.** With SLFNTIATL as the compound, how does the pIC50 read?
**A.** 5.08

**Q.** How did the pIC50 turn out when IGSGRAFYAT was run?
**A.** 2.44

**Q.** How did the pIC50 turn out when IGPGRAFYAA was run?
**A.** 4.52

**Q.** With SLFNTVATL as the compound, how does the pIC50 read?
**A.** 5.19

**Q.** TLDAWVKVV was tested. Which pIC50 did it give?
**A.** 4.70

**Q.** With TLSAWVKVV as the compound, how does the pIC50 read?
**A.** 4.82

**Q.** With PLNAWVKVV as the compound, how does the pIC50 read?
**A.** 4.19

**Q.** With PITFGWCFKL as the compound, how does the pIC50 read?
**A.** 2.65

**Q.** With IGPGRAFYAT as the compound, how does the pIC50 read?
**A.** 3.36

**Q.** SLFNTVATP was tested. Which pIC50 did it give?
**A.** 3.76

**Q.** IGPGIAFYAT was tested. Which pIC50 did it give?
**A.** 3.09

**Q.** With PLTLGWCFKL as the compound, how does the pIC50 read?
**A.** 2.90

**Q.** `CC(C)C[C@H](NC(=O)[C@@H](N)[C@@H](C)O)C(=O)N[C@@H](CC(N)=O)C(=O)N[C@@H](C)C(=O)N[C@@H](Cc1c[nH]c2ccccc12)C(=O)N[C@H](C(=O)N[C@@H](CCCCN)C(=O)N[C@H](C(=O)N[C@H](C(=O)O)C(C)C)C(C)C)C(C)C` was tested. Which pIC50 did it give?
**A.** 4.84

**Q.** With PVTFGWCFKL as the compound, how does the pIC50 read?
**A.** 2.52

**Q.** With `CC(C)C[C@H](NC(=O)[C@H](CCCCN)NC(=O)[C@H](Cc1ccccc1)NC(=O)[C@H](CS)NC(=O)[C@H](Cc1c[nH]c2ccccc12)NC(=O)CNC(=O)[C@H](Cc1ccccc1)NC(=O)[C@@H](NC(=O)[C@H](CC(C)C)NC(=O)[C@@H]1CCCN1)[C@@H](C)O)C(=O)O` as the compound, how does the pIC50 read?
**A.** 2.52

**Q.** How did the pIC50 turn out when ALNAWVKVV was run?
**A.** 5.07

**Q.** With SLFNTVAAL [SLFNTVAAL] as the compound, how does the pIC50 read?
**A.** 5.16

Test system: autologous PBMC of subject 8
Test: Memory
Assay type: cell-based, human
Settings: early cART / following cART (8.3–10.1 yr)

**Q.** With `CSCC[C@H](NC(=O)[C@@H]1CCCN1)C(=O)N[C@@H](CS)C(=O)N[C@@H](Cc1ccccc1)C(=O)NCC(=O)N[C@@H](Cc1c[nH]c2ccccc12)C(=O)N[C@@H](CS)C(=O)N[C@@H](Cc1ccccc1)C(=O)N[C@@H](CCCCN)C(=O)N[C@@H](CC(C)C)C(=O)O` (H-PMCFGWCFKL-OH; N-terminus and C-terminus assumed) as the compound, how does the “memory T cell response (IFN-γ ELISPOT), in words” value (“memory T cell response” for short) read?
**A.** recovered during therapy

Same assay, conditions: late cART (>12.4 yr)

**Q.** Which “memory T cell response” value does the source give for `CSCC[C@H](NC(=O)[C@@H]1CCCN1)C(=O)N[C@@H](CS)C(=O)N[C@@H](Cc1ccccc1)C(=O)NCC(=O)N[C@@H](Cc1c[nH]c2ccccc12)C(=O)N[C@@H](CS)C(=O)N[C@@H](Cc1ccccc1)C(=O)N[C@@H](CCCCN)C(=O)N[C@@H](CC(C)C)C(=O)O` (H-PMCFGWCFKL-OH; N-terminus and C-terminus assumed) here?
**A.** eventual loss

Same assay, conditions: over the course of infection, time points as worded

**Q.** `CSCC[C@H](NC(=O)[C@@H]1CCCN1)C(=O)N[C@@H](CS)C(=O)N[C@@H](Cc1ccccc1)C(=O)NCC(=O)N[C@@H](Cc1c[nH]c2ccccc12)C(=O)N[C@@H](CS)C(=O)N[C@@H](Cc1ccccc1)C(=O)N[C@@H](CCCCN)C(=O)N[C@@H](CC(C)C)C(=O)O` (H-PMCFGWCFKL-OH; N-terminus and C-terminus assumed) was tested. Which “memory T cell response” value did it give?
**A.** no-to-low memory responses

**Q.** `CC(C)C[C@H](NC(=O)[C@H](CCCCN)NC(=O)[C@H](Cc1ccccc1)NC(=O)[C@H](CS)NC(=O)[C@H](Cc1c[nH]c2ccccc12)NC(=O)CNC(=O)[C@H](Cc1ccccc1)NC(=O)[C@H](CS)NC(=O)[C@H](CC(C)C)NC(=O)[C@@H]1CCCN1)C(=O)O` (H-PLCFGWCFKL-OH; N-terminus and C-terminus assumed) was tested. Which “memory T cell response” value did it give?
**A.** no-to-low memory responses

Biological target: soluble HLA-B*0702 (Homo sapiens, UniProt P01889)
Test: Fluorescence polarization
Assay type: binding
Settings: not given

**Q.** FPARPQVPL was tested. Which pIC50 did it give?
**A.** 5.34

**Q.** With IPGPGRHPL as the compound, how does the pIC50 read?
**A.** 5.49

**Q.** RPMTWKGAL [RPMTWKGAL] was tested. Which pIC50 did it give?
**A.** 5.15

**Q.** How did the pIC50 turn out when `CC[C@H](C)[C@H](NC(=O)CNC(=O)[C@@H]1CCCN1C(=O)CNC(=O)[C@@H]1CCCN1C(=O)[C@@H](N)[C@@H](C)O)C(=O)N[C@@H](CCCNC(=N)N)C(=O)N[C@@H](Cc1ccccc1)C(=O)N1CCC[C@H]1C(=O)N[C@@H](CC(C)C)C(=O)O` was run?
**A.** 5.60

**Q.** How did the pIC50 turn out when RPMTYKGAL [RPMTYKGAL] was run?
**A.** 5.11

**Q.** RPNNNTRKSL was tested. Which pIC50 did it give?
**A.** 5.31

**Q.** With TPGPGPRYPV as the compound, how does the pIC50 read?
**A.** 5.18

**Q.** With RPNNNTGKRI as the compound, how does the pIC50 read?
**A.** 4.64

**Q.** With RPSNNTRKRI as the compound, how does the pIC50 read?
**A.** 4.83

**Q.** With PPRTLNAWV as the compound, how does the pIC50 read?
**A.** 4.78

**Q.** With TPGPGIRFPI as the compound, how does the pIC50 read?
**A.** 5.23

**Q.** With RPMTWKAAL [RPMTWKAAL] as the compound, how does the pIC50 read?
**A.** 5.14

**Q.** How did the pIC50 turn out when RPMTRKAAL [RPMTRKAAL] was run?
**A.** 5.18

**Q.** How did the pIC50 turn out when RPNNSTRKSI was run?
**A.** 5.13

**Q.** With TPGPGPRYPL as the compound, how does the pIC50 read?
**A.** 5.23

**Q.** SPRTLDAWV was tested. Which pIC50 did it give?
**A.** 4.62

**Q.** RPTNNTRKSI was tested. Which pIC50 did it give?
**A.** 5.25

**Q.** With `CC(C)C[C@H](NC(=O)[C@@H]1CCCN1C(=O)[C@H](Cc1ccccc1)NC(=O)[C@H](CCCNC(=N)N)NC(=O)[C@@H]1CCCN1C(=O)CNC(=O)[C@@H]1CCCN1C(=O)CNC(=O)[C@@H]1CCCN1C(=O)[C@@H](N)[C@@H](C)O)C(=O)O` as the compound, how does the pIC50 read?
**A.** 5.34

**Q.** With RPNNDTRKSI as the compound, how does the pIC50 read?
**A.** 5.15

**Q.** TKGPGIRFPL was tested. Which pIC50 did it give?
**A.** 3.59

**Q.** How did the pIC50 turn out when `CC(C)C[C@H](NC(=O)[C@@H]1CCCN1C(=O)[C@H](Cc1ccccc1)NC(=O)[C@H](CCCNC(=N)N)NC(=O)[C@@H](NC(=O)CNC(=O)[C@@H]1CCCN1C(=O)CNC(=O)[C@@H]1CCCN1C(=O)[C@@H](N)[C@@H](C)O)[C@@H](C)O)C(=O)O` was run?
**A.** 5.54

**Q.** How did the pIC50 turn out when SPVRPQVPL was run?
**A.** 5.33

**Q.** How did the pIC50 turn out when RPMTCKGAL [RPMTCKGAL] was run?
**A.** 5.26

**Q.** RPNNNTRKSI was tested. Which pIC50 did it give?
**A.** 5.44

**Q.** With FPIRPQVPL as the compound, how does the pIC50 read?
**A.** 5.38

**Q.** How did the pIC50 turn out when RPNNNTRRSI was run?
**A.** 5.01

**Q.** With TPGPGIRYPM as the compound, how does the pIC50 read?
**A.** 5.50

**Q.** How did the pIC50 turn out when RSNNNTRKSI was run?
**A.** 4.67

**Q.** With SPRTLSAWV as the compound, how does the pIC50 read?
**A.** 2.92

**Q.** SPRALNAWV was tested. Which pIC50 did it give?
**A.** 4.93

**Q.** How did the pIC50 turn out when `CC(C)C[C@H](NC(=O)[C@@H]1CCCN1C(=O)[C@@H](NC(=O)[C@H](CCC(N)=O)NC(=O)[C@@H]1CCCN1C(=O)[C@H](CCCNC(=N)N)NC(=O)[C@@H](NC(=O)[C@@H]1CCCN1C(=O)[C@@H](N)Cc1ccccc1)C(C)C)C(C)C)C(=O)O` was run?
**A.** 5.17

**Q.** `CC[C@H](C)[C@H](NC(=O)CNC(=O)[C@@H]1CCCN1C(=O)CNC(=O)[C@@H]1CCCN1C(=O)[C@@H](N)[C@@H](C)O)C(=O)N[C@@H](CCCNC(=N)N)C(=O)N[C@@H](Cc1ccc(O)cc1)C(=O)N1CCC[C@H]1C(=O)N[C@H](C(=O)O)C(C)C` was tested. Which pIC50 did it give?
**A.** 5.26

**Q.** With TPGPGTRYPL as the compound, how does the pIC50 read?
**A.** 5.43

**Q.** How did the pIC50 turn out when TPGPGIRYPL was run?
**A.** 5.22

**Q.** How did the pIC50 turn out when TPGPGPRYPM was run?
**A.** 5.43

**Q.** How did the pIC50 turn out when TSGPGTRFPL was run?
**A.** 4.15

**Q.** How did the pIC50 turn out when `CC(C)C[C@H](NC(=O)[C@@H](NC(=O)[C@H](CCCNC(=N)N)NC(=O)[C@@H]1CCCN1C(=O)[C@@H](N)CO)[C@@H](C)O)C(=O)N[C@@H](CC(N)=O)C(=O)N[C@@H](C)C(=O)N[C@@H](Cc1c[nH]c2ccccc12)C(=O)N[C@H](C(=O)O)C(C)C` was run?
**A.** 4.82

**Q.** How did the pIC50 turn out when RPITYKAAL [RPITYKAAL] was run?
**A.** 5.13

**Q.** With SPRPLNAWV as the compound, how does the pIC50 read?
**A.** 4.82

**Q.** How did the pIC50 turn out when `CC[C@H](C)[C@H](NC(=O)[C@H](CCCNC(=N)N)NC(=O)[C@H](CCCCN)NC(=O)[C@H](CCCNC(=N)N)NC(=O)[C@@H](NC(=O)[C@H](CC(N)=O)NC(=O)[C@H](CC(N)=O)NC(=O)[C@H](CC(N)=O)NC(=O)[C@@H]1CCCN1C(=O)[C@@H](N)CCCNC(=N)N)[C@@H](C)O)C(=O)O` was run?
**A.** 4.68

**Q.** With `CSCC[C@H](NC(=O)[C@@H]1CCCN1C(=O)[C@@H](N)CCCNC(=N)N)C(=O)N[C@H](C(=O)N[C@@H](Cc1ccc(O)cc1)C(=O)N[C@@H](CCCCN)C(=O)N[C@@H](C)C(=O)N[C@@H](C)C(=O)N[C@@H](CC(C)C)C(=O)O)[C@@H](C)O` [RPMTYKAAL] as the compound, how does the pIC50 read?
**A.** 4.96

**Q.** RPNNNTRKCI was tested. Which pIC50 did it give?
**A.** 4.37

**Q.** FSVRPQVPL was tested. Which pIC50 did it give?
**A.** 4.15

**Q.** With `CC(C)C[C@H](NC(=O)[C@@H]1CCCN1C(=O)[C@H](Cc1ccc(O)cc1)NC(=O)[C@H](CCCNC(=N)N)NC(=O)[C@@H](NC(=O)CNC(=O)[C@@H]1CCCN1C(=O)CNC(=O)[C@@H]1CCCN1C(=O)[C@@H](N)[C@@H](C)O)C(C)C)C(=O)O` as the compound, how does the pIC50 read?
**A.** 5.36

**Q.** With RPNNNTRKST as the compound, how does the pIC50 read?
**A.** 4.96
